We go through four molecules from the supplement of paper PMC4862054.

Experiment [1] relates to BT-474. The note with it: 72 h. The essentials:
(§1)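 In this assay, breast cancer cell lines spent 72 h with compound at 5 concentrations in 10-fold steps over a compound-specific 10,000-fold range. The first readout was cell death by CellTox Green fluorescence, and the second was viability by CellTiter-Glo luminescence, each normalised per plate to 0.1 % DMSO and a positive kill control. EC50 came from the dose-response curves, censored at the top concentration.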

For a further experiment, the system named is BT-549. The following applies: 72 h. Summed up:
as §1

The test system of experiment [2] is CAL-120. The following applies: 72 h. The essentials: as §1
Experiment [3] has as its system CAL-51. The following applies: 72 h. Summed up:
as §1

In experiment [4] the test system is CAL-85-1. The note with it: 72 h. Summed up: as §1
The test system of experiment [5] is HCC1937. The following applies: 72 h. Summed up:
as §1

In experiment [6] the test system is Hs578T. The following applies: 72 h. The essentials:
as §1

Another experiment has as its system MCF-10A. The following applies: 72 h. The essentials:
as §1

Experiment [7] has as its system MDA-MB-436. The note with it: 72 h. The essentials:
as §1

The test system of experiment [8] is MDA-MB-453. The note with it: 72 h. Summed up: as §1
Experiment [9] relates to MDA-MB-468. The following applies: 72 h. The essentials: as §1
The next experiment relates to SK-BR-3. The note with it: 72 h. The essentials:
as §1

The subject of experiment [10] is BT-474. Briefly: normalised viability (% of control), CellTiter-Blue; higher = more viable cells (about 100 = DMSO control). The following applies: incubation time: 72 h. Summed up: (§2)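 Plates were quality-checked by Z'-factor and normalised to vehicle (100) and a positive kill control (0). The underlying assay incubated breast cancer cell lines for 72 h on 384-well plates with compound, then added 2.5 µl CellTiter-Blue for 2 h at 37 °C and read at 560/590 nm. The value is normalised viability at a single listed concentration of the series.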
For orientation: The colour change of resazurin is a common sign of viable cells or microbes.

In experiment [11] the test system is CAL-120. Described as above. The note with it: incubation time: 72 h. The essentials:
as §2

Experiment [12] deals with CAL-51. The experiment is described as above. The following applies: incubation time: 72 h. The essentials:
as §2

Experiment [13] concerns CAL-85-1. Described as above. The note with it: incubation time: 72 h. Summed up:
as §2

For experiment [14], the system named is HCC1599. The description is as above. The note with it: incubation time: 72 h. Summed up: as §2
In experiment [15] the test system is HCC1937. The description is as above. The note with it: incubation time: 72 h. The essentials: as §2
Experiment [16] concerns Hs578T. The description is as above. The following applies: incubation time: 72 h. The essentials:
as §2

The test system of experiment [17] is MDA-MB-436. The description is as above. The following applies: incubation time: 72 h. Summed up: as §2
The test system of experiment [18] is MDA-MB-453. Described as above. The following applies: incubation time: 72 h. Summed up:
as §2

Experiment [19] has as its system MDA-MB-468. Described as above. The note with it: incubation time: 72 h. The essentials:
as §2

Experiment [20] has as its system BT-474. Briefly: normalised viability (% of control), CellTiter-Blue; higher = more viable cells (about 100 = DMSO control). The note with it: incubation time: 72 h. On the procedure: (§3)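 DSRT, CellTiter-Blue viability, 72 h incubation. Signal is normalised to DMSO and benzethonium chloride controls. Value is the normalised response at dose 3.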
The source holds these as a separate data set.

In experiment [21] the test system is CAL-51. The experiment is described as above. The note with it: incubation time: 72 h. On the procedure:
as §3
The source holds these as a separate data set.

Experiment [22] concerns DU-4475. Described as above. The following applies: incubation time: 72 h. On the procedure:
as §3

Another experiment concerns HCC1143. The experiment is described as above. The following applies: incubation time: 72 h. On the procedure:
as §3

Experiment [23] deals with HCC1599. The description is as above. The following applies: incubation time: 72 h. On the procedure: as §3
This is another data set of the same source.

Experiment [24] has as its system HCC1937. The experiment is described as above. The note with it: incubation time: 72 h. On the procedure:
as §3
This is another data set of the same source.

Experiment [25] concerns HDQ-P1. Described as above. The following applies: incubation time: 72 h. On the procedure:
as §3

For experiment [26], the system named is MDA-MB-231. The experiment is described as above. The following applies: incubation time: 72 h. On the procedure: as §3
Experiment [27] concerns MDA-MB-468. Described as above. The following applies: incubation time: 72 h. On the procedure:
as §3
This is another data set of the same source.

The subject of another experiment is CAL-148. The experiment is described as above. The note with it: incubation time: 72 h. On the procedure:
(§4)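 DSRT, CellTiter-Blue viability, 72 h incubation. Signal is normalised to DMSO and benzethonium chloride controls. Value is the normalised response at dose 6.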

For experiment [28], the system named is CAL-51. The experiment is described as above. The note with it: incubation time: 72 h. On the procedure: as §4
The source holds these as a separate data set.

Experiment [29] concerns CAL-85-1. The description is as above. The note with it: incubation time: 72 h. On the procedure: as §4
The source holds these as a separate data set.

Experiment [30] relates to DU-4475. Described as above. The following applies: incubation time: 72 h. On the procedure: as §4
This is another data set of the same source.

In experiment [31] the test system is HDQ-P1. The description is as above. The following applies: incubation time: 72 h. On the procedure:
as §4
The source holds these as a separate data set.

Experiment [32] has as its system MDA-MB-453. The experiment is described as above. The following applies: incubation time: 72 h. On the procedure:
as §4
The source holds these as a separate data set.

For experiment [33], the system named is MDA-MB-231. The following applies: 72 h. Summed up: as §1

Turning to `Cn1cncc1[C@@](N)(c1ccc(Cl)cc1)c1ccc2c(c1)c(-c1cccc(Cl)c1)cc(=O)n2C` [Tipifarnib], the “EC50, CellTiter-Glo” value in the experiment with BT-474 [1] was determined as 6900 nM; in the experiment on BT-549 it was 5420 nM; in the experiment with CAL-120 [2] it was 1370 nM; with CAL-51 [3] it was 82.5 nM; in the experiment with CAL-85-1 [4], 9990 nM; in the experiment with HCC1937 [5] it was 126 nM. Also, the “EC50, CellTiter-Glo” value in the experiment with Hs578T [6] was found to be 7870 nM; in the experiment with MCF-10A, 237 nM; with MDA-MB-436 [7], 607 nM; with MDA-MB-453 [8] it was 9.61 nM; with MDA-MB-468 [9] it was 3330 nM; in the experiment on SK-BR-3, 414 nM. In addition, the normalised viability was determined as 45% in the experiment with BT-474 [10] (10000 nM); 32.7% in the experiment with CAL-120 [11] (10000 nM); 63.4% with CAL-51 [12] (100 nM); 76.8% with CAL-85-1 [13] (100 nM); 51.7% in the experiment on HCC1599 [14] (10000 nM); 32.3% in the experiment on HCC1937 [15] (10000 nM). In addition, the normalised viability worked out at 39.3% in the experiment with Hs578T [16] (10000 nM); 54.9% with MDA-MB-436 [17] (10000 nM); 73.6% with MDA-MB-453 [18] (100 nM); 26.4% in the experiment on MDA-MB-468 [19] (10000 nM); 102% in the experiment on BT-474 [20] (100 nM); 99.9% in the experiment with CAL-51 [21] (10 nM). Also, the normalised viability came out at 92.8% in the experiment with DU-4475 [22] (10 nM); 61.6% in the experiment on HCC1143 (100 nM); 72.7% in the experiment on HCC1599 [23] (100 nM); 64.9% with HCC1937 [24] (100 nM); 89.7% with HDQ-P1 [25] (10 nM); 71.8% in the experiment with MDA-MB-231 [26] (100 nM). Besides, the normalised viability came to 96.7% with MDA-MB-468 [27] (100 nM); 44.9% in the experiment with CAL-148 (300 nM); 60.2% with CAL-51 [28] (300 nM); 64% in the experiment with CAL-85-1 [29] (300 nM); 43.9% in the experiment on DU-4475 [30] (300 nM); 52.5% in the experiment with HDQ-P1 [31] (300 nM). Moreover, the normalised viability in the experiment on MDA-MB-453 [32] (300 nM) came out at 77.2%.

As for `COc1ccccc1S(=O)(=O)Nc1ccc2c(c1)CN(C)C(=O)N2` [PFI-1], the “EC50, CellTiter-Glo” value with BT-549 was 1350 nM; with CAL-120 [2] it was 2570 nM; in the experiment with CAL-51 [3], 6310 nM; with CAL-85-1 [4], 8460 nM; in the experiment on Hs578T [6], 1810 nM; in the experiment with MCF-10A it was 4160 nM. Also, the entries for the “EC50, CellTiter-Glo” value with MDA-MB-231 [33] and in the experiment with MDA-MB-453 [8] were 1610 nM and 1980 nM, respectively.

With `CC(C)(C#N)c1cc(Cn2cncn2)cc(C(C)(C)C#N)c1` [Anastrozole], the normalised viability in the experiment with BT-474 [10] (10000 nM) was found to be 122%; in the experiment with CAL-120 [11] (10000 nM), 90.2%; in the experiment with CAL-51 [12] (100 nM), 111%; in the experiment on CAL-85-1 [13] (100 nM), 91.8%; with HCC1599 [14] (10000 nM) it was 104%; in the experiment with HCC1937 [15] (10000 nM), 90.9%. The normalised viability in the experiment with Hs578T [16] (10000 nM) was 107%; in the experiment with MDA-MB-436 [17] (10000 nM), 97.1%; with MDA-MB-453 [18] (100 nM) it was 94.1%; with MDA-MB-468 [19] (10000 nM) it was 95.2%; in the experiment with BT-474 [20] (100 nM), 101%; with CAL-51 [21] (10 nM) it was 109%. The normalised viability worked out at 98.6% in the experiment on DU-4475 [22] (10 nM); 100% in the experiment on HCC1143 (100 nM); 102% with HCC1599 [23] (100 nM); 93.1% with HCC1937 [24] (100 nM); 99.2% in the experiment with HDQ-P1 [25] (10 nM); 92.7% with MDA-MB-231 [26] (100 nM). Further, the normalised viability is 107% in the experiment with MDA-MB-468 [27] (100 nM); 96.1% in the experiment on CAL-148 (300 nM); 102% in the experiment on CAL-51 [28] (300 nM); 93.2% with CAL-85-1 [29] (300 nM); 83.5% in the experiment on DU-4475 [30] (300 nM); 78% in the experiment on HDQ-P1 [31] (300 nM). Also, the normalised viability with MDA-MB-453 [32] (300 nM) was 84.1%.

On to `Cn1c(=O)n(-c2ccc(C(C)(C)C#N)cc2)c2c3cc(-c4cnc5ccccc5c4)ccc3ncc21` [NVP-BEZ235], for which the normalised viability in the experiment with BT-474 [10] (1000 nM) turned out to be 41%; with CAL-120 [11] (1000 nM) it was 14.4%; with CAL-51 [12] (10 nM) it was 54.6%; in the experiment on CAL-85-1 [13] (10 nM) it was 68.6%; in the experiment on HCC1599 [14] (1000 nM), 55.2%; in the experiment on HCC1937 [15] (1000 nM), 45.5%. In addition, the normalised viability in the experiment with Hs578T [16] (1000 nM) turned out to be 24.7%; in the experiment on MDA-MB-436 [17] (1000 nM) it was 63.2%; in the experiment on MDA-MB-453 [18] (10 nM), 49.9%; with MDA-MB-468 [19] (1000 nM), 28.1%; with BT-474 [20] (10 nM) it was 91.6%; in the experiment with CAL-51 [21] (1 nM), 106%. Besides, the normalised viability in the experiment with DU-4475 [22] (1 nM) worked out at 101%; in the experiment with HCC1143 (10 nM), 70.9%; in the experiment with HCC1599 [23] (10 nM), 84.7%; in the experiment with HCC1937 [24] (10 nM), 59.9%; with HDQ-P1 [25] (1 nM), 102%; in the experiment on MDA-MB-231 [26] (10 nM), 72.4%. The normalised viability is 86.6% with MDA-MB-468 [27] (10 nM); 32.4% in the experiment on CAL-148 (30 nM); 29.5% in the experiment on CAL-51 [28] (30 nM); 47.8% in the experiment on CAL-85-1 [29] (30 nM); 65.2% in the experiment on DU-4475 [30] (30 nM); 39.8% in the experiment with HDQ-P1 [31] (30 nM). The normalised viability with MDA-MB-453 [32] (30 nM) stood at 21.9%.
